Key:
brain = assay: Matured TTM-001 and TTM-002 variants, NGS enrichment in mouse brain; format: in vivo, mice; conditions: relative to AAV9 control
[1] = system: brains, heart, liver, muscle, and DRG of the NHPs; assay: Maturation of TTM-001 and TTM-002 capsids, NGS enrichment in NHP tissues; format: in vivo; conditions: relative to AAV9 control
Procedure, shortened: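 Variants carry mutations within and flanking the loop IV peptide insert: positions 450–466 were triplet-randomized, while positions 449–466 received low-frequency point mutations. The combined pool went into two NHPs, and each peptide was scored by NGS enrichment ratio against AAV9.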

[2] = NGS fold-enrichment, brain of mice
[3] = NGS fold-enrichment, mouse brain
[4] = NGS fold-enrichment of RNA, NHP brain
[5] = NGS fold-enrichment, DRG of NHPs
[6] = NGS fold-enrichment, NHP liver DNA
[7] = NGS fold-enrichment, NHP liver RNA
[8] = NGS fold-enrichment, NHP muscle
[9] = NGS fold-enrichment, RNA, brain of NHPs
[10] = NGS fold-enrichment, heart of NHPs
[11] = NGS fold-enrichment, liver DNA of NHPs
[12] = NGS fold-enrichment, liver RNA of NHPs
[13] = NGS fold-enrichment, muscle of NHPs
[14] = NGS fold-enrichment of matured AAV capsid variants, NHP brain, RNA

KTEKSSGSPHSKAQNQQT
Fold Enrichment relative to AAV9, Brain (Mouse) (brain; [2]): 100.177 fold
Fold Enrichment relative to AAV9, Brain (Mouse) (brain; [3]): 100.177 fold
Fold Enrichment relative to AAV9, Brain (NHP) [1, 4]: 107.470 fold
Fold Enrichment relative to AAV9, DRG (NHP) [1, 5]: 0.000 fold
Fold Enrichment relative to AAV9, DRG (NHP) ([1]; NGS fold-enrichment, NHP DRG): 0.000 fold
Fold Enrichment relative to AAV9, Heart (NHP) ([1]; NGS fold-enrichment, NHP heart): 0.016 fold
Fold Enrichment relative to AAV9, Liver DNA (NHP) [1, 6]: 0.179 fold
Fold Enrichment relative to AAV9, Liver RNA (NHP) [1, 7]: 0.977 fold
Fold Enrichment relative to AAV9, Muscle (NHP) [1, 8]: 0.014 fold
Fold Enrichment relative to AAV9, Brain (NHP) [1, 9]: 107.470 fold
Fold Enrichment relative to AAV9, Heart (NHP) [1, 10]: 0.016 fold
Fold Enrichment relative to AAV9, Liver DNA (NHP) [1, 11]: 0.179 fold
Fold Enrichment relative to AAV9, Liver RNA (NHP) [1, 12]: 0.977 fold
Fold Enrichment relative to AAV9, Muscle (NHP) [1, 13]: 0.014 fold

KTEKTSGSPHSKAQNQQT
Fold Enrichment relative to AAV9, Brain (Mouse) (brain; [2]): 101.467 fold
Fold Enrichment relative to AAV9, Brain (Mouse) (brain; [3]): 101.467 fold
Fold Enrichment relative to AAV9, Brain (NHP) [1, 4]: 120.337 fold
Fold Enrichment relative to AAV9, DRG (NHP) [1, 5]: 0.000 fold
Fold Enrichment relative to AAV9, DRG (NHP) ([1]; NGS fold-enrichment, NHP DRG): 0.000 fold
Fold Enrichment relative to AAV9, Heart (NHP) ([1]; NGS fold-enrichment, NHP heart): 0.355 fold
Fold Enrichment relative to AAV9, Liver DNA (NHP) [1, 6]: 0.119 fold
Fold Enrichment relative to AAV9, Liver RNA (NHP) [1, 7]: 0.000 fold
Fold Enrichment relative to AAV9, Muscle (NHP) [1, 8]: 0.000 fold
Fold Enrichment relative to AAV9, Brain (NHP) [1, 9]: 120.337 fold
Fold Enrichment relative to AAV9, Heart (NHP) [1, 10]: 0.355 fold
Fold Enrichment relative to AAV9, Liver DNA (NHP) [1, 11]: 0.119 fold
Fold Enrichment relative to AAV9, Liver RNA (NHP) [1, 12]: 0.000 fold
Fold Enrichment relative to AAV9, Muscle (NHP) [1, 13]: 0.000 fold

KTEKVSGSPHSKAQNQQT
Fold Enrichment relative to AAV9, Brain (Mouse) (brain; [2]): 112.185 fold
Fold Enrichment relative to AAV9, Brain (Mouse) (brain; [3]): 112.185 fold
Fold Enrichment relative to AAV9, Brain (NHP) [1, 4]: 84.558 fold
Fold Enrichment relative to AAV9, DRG (NHP) [1, 5]: 0.000 fold
Fold Enrichment relative to AAV9, DRG (NHP) ([1]; NGS fold-enrichment, NHP DRG): 0.000 fold
Fold Enrichment relative to AAV9, Heart (NHP) ([1]; NGS fold-enrichment, NHP heart): 0.022 fold
Fold Enrichment relative to AAV9, Liver DNA (NHP) [1, 6]: 0.424 fold
Fold Enrichment relative to AAV9, Liver RNA (NHP) [1, 7]: 0.873 fold
Fold Enrichment relative to AAV9, Muscle (NHP) [1, 8]: 0.000 fold
Fold Enrichment relative to AAV9, Brain (NHP) [1, 9]: 84.558 fold
Fold Enrichment relative to AAV9, Heart (NHP) [1, 10]: 0.022 fold
Fold Enrichment relative to AAV9, Liver DNA (NHP) [1, 11]: 0.424 fold
Fold Enrichment relative to AAV9, Liver RNA (NHP) [1, 12]: 0.873 fold
Fold Enrichment relative to AAV9, Muscle (NHP) [1, 13]: 0.000 fold

KTELGSGSPHSKAQNQQT
Fold Enrichment relative to AAV9, Brain (Mouse) (brain; mouse brain): 87.314 fold
Fold Enrichment relative to AAV9, Brain (NHP) [1, 14]: 52.232 fold
Fold Enrichment relative to AAV9, DRG (NHP) ([1]; NHP DRG): 0.000 fold
Fold Enrichment relative to AAV9, Heart (NHP) ([1]; NHP heart): 0.007 fold
Fold Enrichment relative to AAV9, Liver DNA (NHP) ([1]; NHP liver, DNA): 0.088 fold
Fold Enrichment relative to AAV9, Liver RNA (NHP) ([1]; NHP liver, RNA): 0.532 fold
Fold Enrichment relative to AAV9, Muscle (NHP) ([1]; NHP muscle): 0.006 fold

KTELHSGSPHSKAQNQQT
Fold Enrichment relative to AAV9, Brain (Mouse) (brain; [2]): 53.124 fold
Fold Enrichment relative to AAV9, DRG (NHP) [1, 5]: 0.000 fold
Fold Enrichment relative to AAV9, Brain (NHP) [1, 9]: 74.620 fold
Fold Enrichment relative to AAV9, Heart (NHP) [1, 10]: 0.000 fold
Fold Enrichment relative to AAV9, Liver DNA (NHP) [1, 11]: 0.089 fold
Fold Enrichment relative to AAV9, Liver RNA (NHP) [1, 12]: 0.021 fold
Fold Enrichment relative to AAV9, Muscle (NHP) [1, 13]: 0.000 fold

KTELRHDSPHKSGQNQQT
Fold Enrichment relative to AAV9, Brain (Mouse) (brain; [3]): 6.588 fold
Fold Enrichment relative to AAV9, Brain (NHP) [1, 4]: 98.098 fold
Fold Enrichment relative to AAV9, DRG (NHP) ([1]; NGS fold-enrichment, NHP DRG): 0.000 fold
Fold Enrichment relative to AAV9, Heart (NHP) ([1]; NGS fold-enrichment, NHP heart): 0.019 fold
Fold Enrichment relative to AAV9, Liver DNA (NHP) [1, 6]: 0.007 fold
Fold Enrichment relative to AAV9, Liver RNA (NHP) [1, 7]: 0.000 fold
Fold Enrichment relative to AAV9, Muscle (NHP) [1, 8]: 0.000 fold

KTELRSGSPHSKAQNQQT
Fold Enrichment relative to AAV9, Brain (Mouse) (brain; mouse brain): 57.814 fold
Fold Enrichment relative to AAV9, Brain (NHP) [1, 14]: 54.289 fold
Fold Enrichment relative to AAV9, DRG (NHP) ([1]; NHP DRG): 0.000 fold
Fold Enrichment relative to AAV9, Heart (NHP) ([1]; NHP heart): 0.007 fold
Fold Enrichment relative to AAV9, Liver DNA (NHP) ([1]; NHP liver, DNA): 0.239 fold
Fold Enrichment relative to AAV9, Liver RNA (NHP) ([1]; NHP liver, RNA): 0.790 fold
Fold Enrichment relative to AAV9, Muscle (NHP) ([1]; NHP muscle): 0.040 fold

KTELTSGSPHSKAQNQQT
Fold Enrichment relative to AAV9, Brain (Mouse) (brain; [2]): 100.311 fold
Fold Enrichment relative to AAV9, DRG (NHP) [1, 5]: 0.000 fold
Fold Enrichment relative to AAV9, Brain (NHP) [1, 9]: 74.548 fold
Fold Enrichment relative to AAV9, Heart (NHP) [1, 10]: 0.000 fold
Fold Enrichment relative to AAV9, Liver DNA (NHP) [1, 11]: 0.421 fold
Fold Enrichment relative to AAV9, Liver RNA (NHP) [1, 12]: 0.537 fold
Fold Enrichment relative to AAV9, Muscle (NHP) [1, 13]: 0.000 fold

KTELWHDSPHKSGQNQQT
Fold Enrichment relative to AAV9, Brain (Mouse) (brain; [3]): 9.915 fold
Fold Enrichment relative to AAV9, Brain (NHP) [1, 4]: 85.323 fold
Fold Enrichment relative to AAV9, DRG (NHP) ([1]; NGS fold-enrichment, NHP DRG): 0.057 fold
Fold Enrichment relative to AAV9, Heart (NHP) ([1]; NGS fold-enrichment, NHP heart): 0.020 fold
Fold Enrichment relative to AAV9, Liver DNA (NHP) [1, 6]: 0.243 fold
Fold Enrichment relative to AAV9, Liver RNA (NHP) [1, 7]: 0.000 fold
Fold Enrichment relative to AAV9, Muscle (NHP) [1, 8]: 0.000 fold

KTEMKHDSPHKSGQNQQT
Fold Enrichment relative to AAV9, Brain (Mouse) (brain; [3]): 3.183 fold
Fold Enrichment relative to AAV9, Brain (NHP) [1, 4]: 240.075 fold
Fold Enrichment relative to AAV9, DRG (NHP) ([1]; NGS fold-enrichment, NHP DRG): 0.000 fold
Fold Enrichment relative to AAV9, Heart (NHP) ([1]; NGS fold-enrichment, NHP heart): 0.000 fold
Fold Enrichment relative to AAV9, Liver DNA (NHP) [1, 6]: 0.000 fold
Fold Enrichment relative to AAV9, Liver RNA (NHP) [1, 7]: 0.000 fold
Fold Enrichment relative to AAV9, Muscle (NHP) [1, 8]: 0.000 fold

KTENASGSPHSKAQNQQT
Fold Enrichment relative to AAV9, Brain (Mouse) (brain; mouse brain): 88.439 fold
Fold Enrichment relative to AAV9, Brain (NHP) [1, 14]: 58.187 fold
Fold Enrichment relative to AAV9, DRG (NHP) ([1]; NHP DRG): 0.000 fold
Fold Enrichment relative to AAV9, Heart (NHP) ([1]; NHP heart): 0.038 fold
Fold Enrichment relative to AAV9, Liver DNA (NHP) ([1]; NHP liver, DNA): 0.129 fold
Fold Enrichment relative to AAV9, Liver RNA (NHP) ([1]; NHP liver, RNA): 0.371 fold
Fold Enrichment relative to AAV9, Muscle (NHP) ([1]; NHP muscle): 0.000 fold

KTENGSASPHSKALNQQT (KTFNGSASPHSKALNQQT)
Fold Enrichment relative to AAV9, Brain (Mouse) (brain; [3]): 31.855 fold
Fold Enrichment relative to AAV9, Brain (NHP) [1, 4]: 84.258 fold
Fold Enrichment relative to AAV9, DRG (NHP) ([1]; NGS fold-enrichment, NHP DRG): 0.000 fold
Fold Enrichment relative to AAV9, Heart (NHP) ([1]; NGS fold-enrichment, NHP heart): 0.122 fold
Fold Enrichment relative to AAV9, Liver DNA (NHP) [1, 6]: 0.037 fold
Fold Enrichment relative to AAV9, Liver RNA (NHP) [1, 7]: 0.104 fold
Fold Enrichment relative to AAV9, Muscle (NHP) [1, 8]: 0.000 fold

KTENISGSPHSKAQNQQT
Fold Enrichment relative to AAV9, Brain (Mouse) (brain; [2]): 83.118 fold
Fold Enrichment relative to AAV9, Brain (Mouse) (brain; [3]): 83.118 fold
Fold Enrichment relative to AAV9, Brain (NHP) [1, 4]: 76.072 fold
Fold Enrichment relative to AAV9, DRG (NHP) [1, 5]: 0.000 fold
Fold Enrichment relative to AAV9, DRG (NHP) ([1]; NGS fold-enrichment, NHP DRG): 0.000 fold
Fold Enrichment relative to AAV9, Heart (NHP) ([1]; NGS fold-enrichment, NHP heart): 0.000 fold
Fold Enrichment relative to AAV9, Liver DNA (NHP) [1, 6]: 0.132 fold
Fold Enrichment relative to AAV9, Liver RNA (NHP) [1, 7]: 0.115 fold
Fold Enrichment relative to AAV9, Muscle (NHP) [1, 8]: 0.000 fold
Fold Enrichment relative to AAV9, Brain (NHP) [1, 9]: 76.072 fold
Fold Enrichment relative to AAV9, Heart (NHP) [1, 10]: 0.000 fold
Fold Enrichment relative to AAV9, Liver DNA (NHP) [1, 11]: 0.132 fold
Fold Enrichment relative to AAV9, Liver RNA (NHP) [1, 12]: 0.115 fold
Fold Enrichment relative to AAV9, Muscle (NHP) [1, 13]: 0.000 fold

KTENKSGSPHSKAQNQQT
Fold Enrichment relative to AAV9, Brain (Mouse) (brain; [3]): 31.182 fold
Fold Enrichment relative to AAV9, Brain (NHP) [1, 4]: 103.854 fold
Fold Enrichment relative to AAV9, DRG (NHP) ([1]; NGS fold-enrichment, NHP DRG): 0.000 fold
Fold Enrichment relative to AAV9, Heart (NHP) ([1]; NGS fold-enrichment, NHP heart): 0.037 fold
Fold Enrichment relative to AAV9, Liver DNA (NHP) [1, 6]: 0.119 fold
Fold Enrichment relative to AAV9, Liver RNA (NHP) [1, 7]: 0.000 fold
Fold Enrichment relative to AAV9, Muscle (NHP) [1, 8]: 0.000 fold

KTENLSGSPHSKAQNQQT
Fold Enrichment relative to AAV9, Brain (Mouse) (brain; [2]): 107.385 fold
Fold Enrichment relative to AAV9, DRG (NHP) [1, 5]: 0.070 fold
Fold Enrichment relative to AAV9, Brain (NHP) [1, 9]: 70.303 fold
Fold Enrichment relative to AAV9, Heart (NHP) [1, 10]: 0.000 fold
Fold Enrichment relative to AAV9, Liver DNA (NHP) [1, 11]: 0.470 fold
Fold Enrichment relative to AAV9, Liver RNA (NHP) [1, 12]: 0.395 fold
Fold Enrichment relative to AAV9, Muscle (NHP) [1, 13]: 0.000 fold

Reference: patent US20260250318A1, “COMPOSITIONS AND METHODS FOR CROSSING THE BLOOD BRAIN BARRIER” (VOYAGER THERAPEUTICS, INC., priority 2022, published 2026)
